Test results published in the NIST ThermoML archive (doi:10.1021/je501083d).
± gives the expanded uncertainty stated by the source.

Settings: 101.33 kPa, Liquid, Pycnometric method

| mass density (288.2 K) [kg/m3] | mass density (293.2 K) [kg/m3] | mass density (298.2 K) [kg/m3] | mass density (303.2 K) [kg/m3] | mass density (308.2 K) [kg/m3] | mass density (313.2 K) [kg/m3] | Compound |
| --- | --- | --- | --- | --- | --- | --- |
| 1375.8 ± 2.8 | 1371.5 ± 2.8 | 1368.4 ± 2.8 | 1363.5 ± 2.8 | 1359.3 ± 2.8 | 1355 ± 2.8 | CCCCn1cc[n+](C)c1.F[P-](F)(F)(F)(F)F [1-butyl-3-methylimidazolium hexafluorophosphate] |
| 1205.4 ± 2.5 | 1202.1 ± 2.5 | 1199.4 ± 2.5 | 1195.4 ± 2.5 | 1191.7 ± 2.5 | 1188 ± 2.5 | CCCCn1cc[n+](C)c1.F[B-](F)(F)F [1-butyl-3-methylimidazolium tetrafluoroborate] |

| Compound | mass density (288.2 K) [kg/m3] | mass density (293.2 K) [kg/m3] | mass density (298.2 K) [kg/m3] | mass density (303.2 K) [kg/m3] | mass density (308.2 K) [kg/m3] | mass density (313.2 K) [kg/m3] |
| --- | --- | --- | --- | --- | --- | --- |
| CCCC[n+]1ccn(C)c1.O=S(=O)([N-]S(=O)(=O)C(F)(F)F)C(F)(F)F | 1443.6 ± 6.1 | 1439.7 ± 6.1 | 1435.6 ± 6 | 1431.3 ± 6 | 1426.8 ± 6 | 1421.9 ± 6 |
